Results as given in US4859664A, “Derivatives of 2,3,4,5,6,7-hexahydro-2,7-methano-1,5-benzoxazonines and -1,4-benzoxazonines, processes for their production and their use as pharmaceuticals” (priority 1986, dated 1989).
Counter-ions that a name gives are not always drawn. Like-named read-outs stand apart in the source and are kept apart here.

What was measured:
[1] = format: in vivo, male NMRI mice
Protocol: (§1) […]. They were given a standard feed and water ad libitum up to the commencement of the experiments.
(§2) The test compounds were administered in a volume of 10 ml./kg./body weight per mouse. As carrier, there was used physiological sodium chloride solution or a suspension of 0.5% tragacanth in physiological sodium chloride solution.
(§3) The experimental results are given as average values with a mean error of the average value (x±S.E.M.). The ED50 values were calculated according to Litchfield and Wilcoxon (J. Pharmacol. Exp. Ther., 96, 99/1949). The compounds were thereby tested in 4 dosages (p≤0.5).
(§4) For the significance calculation, there was used Student's t test (see Angewandte Statistik, pub. Stringer Verlag, Berlin, Heidelberg, 242/1983), as well as the range sum test of Mann and Withney (Ann. Math. stat., 50, 1818/1947).
(§5) 1.1. In the acetic acid writhing test (see R. Koster et al., Fed. proc., 18, 412/1954), the typical stretching movements referred to as "writhing", were produced by the intraperitoneal administration of a 0.6% acetic acid solution. 30 minutes previously, the substance to be tested was administered subcutaneously (s.c.) or orally ([…].) to the animals. 3 minutes after administration of the acetic acid solution, the total number of stretching movements in a period of time of 10 minutes was ascertained. From the decrease of the stretching reactions due to the action of the test compound in comparison with non-pretreated control groups, there was determined the percentage inhibition action.

[2] = influencing of hexobarbital narcosis; format: in vivo, male NMRI mice
Protocol: as §1, §2, §3
4. Influencing of hexobarbital narcosis.
The test compounds were administered subcutaneously to 5 animals per dosage group. After 30 minutes, 100 mg./kg. hexobarbital sodium was administered intraperitoneally. 2 to 3 minutes after this injection, the animals allowed themselves to be laid on their backs. For each animal, there was measured the time in minutes from the commencement of the back position up to the time when the animals themselves twice successively again assumed the abdominal position.

[3] = influencing of the amphetamine group toxicity; format: in vivo, male NMRI mice; conditions: amphetamine control group, 15 mg. s.c.
Protocol: as §1, §2
3. Influencing of the amphetamine group toxicity.
There was investigated the influence of the test compounds on the mortality of amphetamine-treated, aggregated mice. The dosaging of d-amphetamine was 15 mg./kg., which should permit the recognition not only of a synergism but also of an antagonism towards a sympathomimetic compound. Carrying out the experiment:
30 minutes after the subcutaneous administration of the test substance, the animals received subcutaneously 15 mg./kg. of d-amphetamine sulphate. The number of dead animals was recorded after 2, 4 and 7 hours. For the maintenance of the group size, the dead animals were replaced by untreated animals (6 animals/dosage group).

[4] = tonus reduction on striated musculature; format: in vivo, male NMRI mice; conditions: 5 mg./kg. s.c.
Protocol: (§6) For the pharmacological investigations described in the following, there were used male NMRI mice with a weight of from 15 to 30 g. The animals were kept under usual laboratory conditions, randomised and subjected to a light-dark change with a 12 hour rhythm. They were given a standard feed and water ad libitum up to the commencement of the experiments.
as §2
6. Tonus reduction on striated musculature.
The test used is described by J. P. Chambon et al. (Arzneimittelforschung (Drug Research), 35 (II), (10), 1572/1985).
5 animals per dosage group were placed with their front paws on a horizontal metal rod (diameter 3 mm., length 20 cm.) which was fixed 30 cm. above a laboratory bench. Mice with normal muscle tonus climbed within 5 seconds on to the rod with at least one rear paw.
40, 80 and 120 minutes after the subcutaneous administration of the test compound, the animals were again tested for this ability and the number of incapable animals was recorded.

[5] = testing for ataxia (rotating rod test); format: in vivo, male NMRI mice
Protocol: as §6, §2
There was used the rotating rod test (see F. Gross et al., Schweiz. Med. Wschr., 85, 305/1955).
5 animals per dosage group were trained to keep themselves on a horizontally rotating rod made of synthetic resin (16 rpm). 40, 80 and 120 minutes after the subcutaneous administration of the test compounds, the animals were again tested. From the number of animals which fell off prematurely, there was determined the disturbance of the movement coordination.

[6] = format: in vivo, male NMRI mice; remark: listed apart in the source
Protocol: as §1, §2
2. Development of dependency.
Withdrawal jumps of the mouse (see J. K. Saelens et al., Arch. Int. Pharmacodyn. Ther., 190, 213/1971).
Mice which were dependent upon morphine or other opiates react, when treated with morphine antagonists, with a flight reaction (see F. Huidobro and C. Maggiolo, Arch. Int. Pharmacodyn. Ther., 158, 97/1965); E. L. Way et al., Science, 162, 1290/1968). This flight reaction manifests itself in very vigorous jumping reactions which continue for about 10 minutes. From the number of reacting animals and especially from the jump frequency per animal, there can be deduced the strength of the withdrawal symptoms and thus the degree of dependency upon the test compound. Carrying out of the test:
The test and standard compounds were administered subcutaneously according to the scheme shown in the following Table III in increasing dosages over the course of 2 days.
For the provocation of the withdrawal jumps, the animals received intraperitoneally, 2 hours after the last compound administration, 30 mg./kg. naloxone hydrochloride.
Immediately after the administration of the naloxone, the animals were placed individually in a 5 liter glass beaker. Subsequently, the number of jump movements was recorded during the course of 10 minutes. For evaluation, the number of animals reacting the withdrawal jumps, as well as the average number of jumps per animal, was used.
The animals of the naloxone control group were, up to the administration of naloxone, treated with a 0.9% aqueous solution of sodium chloride (6 animals/dosage group).

[7] = format: in vivo, male NMRI mice; conditions: given without sign
Protocol: They were given a standard feed and water ad libitum up to the commencement of the experiments.
as §2, §3, §4, §5
Naloxone-antagonistic action in the writhing test.
20 Minutes before the subcutaneous administration of the test compounds, the animals were given 20 mg./kg. naloxone hydrochloride subcutaneously. The further carrying out of the experiments was as described above.

## CC1CCCC2C3CNCCC12Oc1ccccc13 (stereo not drawn) [Example 12, B/C-trans-1,2,3,4,4a,9a-hexahydro-4-methyl-4a,9-(3-azabutano)-xanthene]
[1]; 25 mg./kg. s.c.
  inhibiting action in writhing test: 24%
[1]; 50 mg./kg. s.c.
  inhibiting action in writhing test: 79%

## CC(N)Cc1ccccc1.O=S(=O)(O)O (stereo not shown) [amphetamine sulphate, reference compound]
[2]; 1.0 mg/kg sc
  change with regard to hexabarbital sodium: -43.2 min
[2]; 1.0 mg/kg sc, hexobarbital sodium 100 mg./kg. i.p.
  period of narcosis ± SEM: 49.2 ± 14.6 min

## CC(N)Cc1ccccc1 (stereo not shown) [amphetamine, reference compound]
[3]
  % of deceased animals after 2 hrs.: 0%
  % of deceased animals after 4 hrs.: 33%
  % of deceased animals after 7 hrs.: 0%
  % of deceased animals, total: 33.3%

## COc1ccc2c3c1O[C@H]1[C@@H](O)C=C[C@H]4[C@@H](C2)N(C)CC[C@@]341 [codeine phosphate, reference compound]
[2]; 50 mg/kg sc
  change with regard to hexabarbital sodium: +51.2 min.
[2]; 50 mg/kg sc, hexobarbital sodium 100 mg./kg. i.p.
  period of narcosis ± SEM: 143.6 ± 10.5 min

## CN1C(=O)CN=C(c2ccccc2)c2cc(Cl)ccc21 [diazepam, reference compound]
[4]
  relaxing action: 93%
[5]; 5 mg/kg s.c.
  change of the maintenance time in % compared with the control group, after 40 min.: -87%
  change of the maintenance time in % compared with the control group, after 80 min.: -73%
  change of the maintenance time in % compared with the control group, after 120 min.: -22%

## CN1C(=O)NC(=O)C(C)(C2=CCCCC2)C1=O (stereo not shown) [hexobarbital, reference compound]
[2]; hexobarbital alone, 100 mg/kg ip
  period of narcosis ± SEM: 92.4 ± 17.1 min

## CN1CC[C@]23c4c5ccc(O)c4O[C@H]2[C@@H](O)C=C[C@H]3[C@H]1C5.Cl [morphine HCl, reference compound]
[6]; mouse, in vivo
  % of reacting animals: 100%

## CCC1(c2ccccc2)C(=O)NC(=O)NC1=O [phenobarbital, reference compound]
[5]; 30 mg/kg s.c.
  change of the maintenance time in % compared with the control group, after 40 min.: -29%
  change of the maintenance time in % compared with the control group, after 80 min.: -21%
  change of the maintenance time in % compared with the control group, after 120 min.: -37%
[5]; 50 mg/kg s.c.
  change of the maintenance time in % compared with the control group, after 40 min.: -54%
  change of the maintenance time in % compared with the control group, after 80 min.: -46%
  change of the maintenance time in % compared with the control group, after 120 min.: -42%

## COc1cccc(C2(O)CCCCC2CN(C)C)c1 (stereo not shown) [tramadol HCl, reference compound]
[6]; s.c. increasing dosages over 2 days, naloxone i.p., 10 minutes
  % of reacting animals: 83.3%

## COc1cccc(C2(O)CCCCC2CN(C)C)c1 (stereo not shown) [tramadol, 2-[(dimethylamino)-methyl]-1-(3-methoxyphenyl)-cyclohexanol, reference compound]
[7]; 10 mg/kg s.c.
  change in % (with vs without naloxone): 39.0%
[7]; 20 mg/kg s.c.
  change in % (with vs without naloxone): 30.7%
